Results published in patent US12384769B2, “Heteroaryl-substituted aminoalkyl azole compounds as pesticides” (Elanco Animal Health GmbH, priority 2019, dated 2025).

Legend:
Format in all cases: in vivo
[1] = tested on: Ctenocephalides felis; test: Ctenocephalides felis oral test (CTECFE); details: 48 h, 100 ppm in cattle blood, after 2 days
Method: Ctenocephalides felis—Oral Test (CTECFE)
(§1) Solvent: dimethyl sulfoxide
To produce a suitable preparation of active compound, 10 mg of active compound are dissolved in 0.5 ml solvent, and the concentrate is diluted with cattle blood to the desired concentration.
Approximately 20 adult unfed cat fleas (Ctenocephalides felis) are placed in flea chambers. The blood chamber, sealed with parafilm on the bottom, are filled with cattle blood supplied with compound solution and placed on the gauze covered top of the flea chamber, so that the fleas are able to suck the blood. The blood chamber is heated to 37° C. whereas the flea chamber is kept at room temperature.
After 2 days mortality in % is determined. 100% means all the fleas have been killed; 0% means none of the fleas have been killed.

[2] = tested on: Diabrotica balteata; test: Diabrotica balteata spray test; details: 168 h, wheat seeds, after 7 days, read-out: activity (efficacy, seedlings grown); for pest or weed control at 160 µg/disc, 500 g/ha: 500 g/ha (=160 μg/well)
Method: Diabrotica balteata—Spray Test
Solvent: 78.0 parts by weight of acetone • • 1.5 parts by weight of dimethylformamide
(§2) Emulsifier: alkylarylpolyglycol ether
(§3) To produce a suitable preparation of active compound, 1 part by weight of active compound is mixed with the stated amount of solvent, and the concentrate is diluted with water, containing an emulsifier concentration of 1000 ppm, to the desired concentration. Further test concentrations are prepared by dilution with emulsifier containing water.
Soaked wheat seeds (Triticum aestivum) are placed in a multiple well plate filled with agar and some water and are incubated for 1 day to germinate (5 seeds per well). The germinated wheat seeds are sprayed with a test solution containing the desired concentration of the active ingredient. Afterwards each unit is infected with 10-20 larvae of the banded cucumber beetle (Diabrotica balteata).
After 7 days efficacy in % is determined. 100% means all the seedlings have grown up like in the untreated, uninfected control; 0% means none of the seedlings have grown.

[3] = tested on: Boophilus microplus; test: Boophilus microplus injection test (BOOPMI Injection); details: Rhipicephalus microplus, 168 h, injection into adult engorged female ticks, egg deposition after 7 days, read-out: activity (efficacy, infertile eggs); for pest or weed control at 0.004 mg: 4 μg/animal; for pest or weed control at 0.02 mg: 20 μg/animal
Method: Boophilus microplus—Injection Test (BOOPMI Injection)
as §1
To produce a suitable preparation of active compound, 10 mg of active compound are dissolved in 0.5 mL solvent, and the concentrate is diluted with solvent to the desired concentration.
Five adult engorged female ticks (Boophilus microplus) are injected with 1 μL compound solution into the abdomen. The ticks are transferred into replica plates and incubated in a climate chamber.
After 7 days egg deposition of fertile eggs is monitored. Eggs where fertility is not visible are stored in a climate chamber till hatching after about 42 days. An efficacy of 100% means all eggs are infertile; 0% means all eggs are fertile.

[4] = tested on: Spodoptera frugiperda; test: Spodoptera frugiperda spray test; details: in Zea mays, 168 h, read-out: activity (mortality)
Method: Spodoptera frugiperda—Spray Test
Solvent: 78.0 parts by weight acetone • 1.5 parts by weight dimethylformamide
as §2
as §3, with “solvents” for “solvent,”, “and” for “and the concentrate”
Maize (Zea mays) leaf sections are sprayed with a preparation of the active ingredient of the desired concentration. Once dry, the leaf sections are infested with fall armyworm larvae (Spodoptera frugiperda).
After 7 days mortality in % is determined. 100% means all caterpillars have been killed and 0% means none of the caterpillars have been killed.

[5] = tested on: Rhipicephalus microplus (strain Parkhurst, resistant against synthetic pyrethroids); test: Rhipicephalus microplus in-vitro contact test, larval cattle tick (BOOPMI Contact); details: 5 μg/cm^2 (=500 g/ha), after 48 hours, read-out: activity (efficacy, larvae dead or moribund)
Method: Rhipicephalus microplus—in-Vitro Contact Tests Larval Cattle Tick (Strain Parkhurst, Resistant Against Synthetic Pyrethroids) (BOOPMI Contact)
9 mg compound is solved in 1 ml acetone and diluted with acetone to the desired concentration. 250 μL of the test solution is filled in 25 ml glass test tubes and homogeneously distributed on the inner walls by rotation and tilting on a shaking device (2 h at 30 rpm). With a compound concentration of 900 ppm, an inner surface of 44.7 cm^2 and a homogeneous distribution, a dose of 5 μg/cm^2 is achieved.
After the solvent has evaporated, each test tube is filled with 20-50 cattle tick larvae (Rhipicephalus microplus), closed with a perforated lid and incubated in a horizontal position at 85% relative humidity and 27° C. in an incubator. After 48 hours efficacy is determined. The larvae are patted on the ground of the tubes and negative geotactic behaviour is recorded.
An efficacy of 100% means all larvae are dead or moribund; 0% means no larvae are dead or moribund.

C[C@H](Nc1nc2cc(OC(F)(F)F)cc(Cl)c2o1)c1ncnn1-c1ncc(Br)cn1 [Example I-078, N-{(1S)-1-[1-(5-Brompyrimidin-2-yl)-1H-1,2,4-triazol-5-yl]ethyl}-7-chlor-5-(trifluormethoxy)-1,3-benzoxazol-2-amin]
mortality at 100 ppm [1]: 100%
pest or weed control at 100 g/ha [2]: 100%

Cc1nc([C@H](C)Nc2nc3cc(C(F)(F)F)cc(C(F)(F)F)c3o2)n(-c2ncccn2)n1 [Example I-012]
pest or weed control at 0.004 mg [3]: 100%
pest or weed control at 0.02 mg [3]: 100%
mortality at 100 ppm [1]: 100%
mortality at 500 g/ha [4]: 100%

C[C@H](Nc1nc2cc(Br)cc(Cl)c2o1)c1ncnn1-c1ncccn1 [Example I-010]
pest or weed control at 0.02 mg [3]: 100%
mortality at 100 ppm [1]: 100%
pest or weed control at 100 g/ha [2]: 80%
pest or weed control at 160 µg/disc, 500 g/ha [2]: 100%
mortality at 500 g/ha [4]: 100%

C[C@H](Nc1nc2cc(C(F)(F)F)cc(Cl)c2o1)c1ncnn1-c1nccs1 [Example I-050, 7-Chlor-N-{(1S)-1-[1-(1,3-thiazol-2-yl)-1H-1,2,4-triazol-5-yl]ethyl}-5-(trifluormethyl)-1,3-benzoxazol-2-amin]
pest or weed control at 0.004 mg [3]: 80%
pest or weed control at 0.02 mg [3]: 80%
mortality at 100 ppm [1]: 90%

C[C@H](Nc1nc2cc(C(F)(F)F)c(Cl)cc2o1)c1ncnn1-c1ncc(C2COC2)cn1 [Example I-056, 6-Chloro-N-[(1S)-1-{1-[5-(oxetan-3-yl)pyrimidin-2-yl]-1H-1,2,4-triazol-5-yl}ethyl]-5-(trifluoromethyl)-1,3-benzoxazol-2-amine]
pest or weed control at 0.004 mg [3]: 80%
pest or weed control at 0.02 mg [3]: 100%
mortality at 100 ppm [1]: 100%
pest or weed control at 5 µg/cm2 [5]: 80%

C[C@H](Nc1nc2cc(S(F)(F)(F)(F)F)cc(Cl)c2o1)c1ncnn1-c1ncccn1 [Example I-069, 7-Chlor-5-(pentafluor-lambda^6-sulfanyl)-N-{(1S)-1-[1-(pyrimidin-2-yl)-1H-1,2,4-triazol-5-yl]ethyl}-1,3-benzoxazol-2-amin]
pest or weed control at 0.004 mg [3]: 100%
mortality at 100 ppm [1]: 100%
pest or weed control at 100 g/ha [2]: 100%
mortality at 100 g/ha [4]: 100%
pest or weed control at 5 µg/cm2 [5]: 80%

C[C@H](Nc1nc2cc(C(F)(F)F)cc(Cl)c2o1)c1ncnn1-c1ncc(Br)cn1 [Example I-044, N-{(1S)-1-[1-(5-Brompyrimidin-2-yl)-1H-1,2,4-triazol-5-yl]ethyl}-7-chlor-5-(trifluormethyl)-1,3-benzoxazol-2-amin]
pest or weed control at 0.004 mg [3]: 100%
mortality at 100 ppm [1]: 100%
pest or weed control at 100 g/ha [2]: 100%
mortality at 100 g/ha [4]: 100%
pest or weed control at 5 µg/cm2 [5]: 100%

Cc1nc([C@H](C)Nc2nc3cc(C(F)(F)F)cc(Br)c3o2)n(-c2ncccn2)n1 [Example I-053, 7-Bromo-N-{(1S)-1-[3-methyl-1-(pyrimidin-2-yl)-1H-1,2,4-triazol-5-yl]ethyl}-5-(trifluormethyl)-1,3-benzoxazol-2-amin]
pest or weed control at 0.004 mg [3]: 100%
pest or weed control at 0.02 mg [3]: 100%
mortality at 100 ppm [1]: 100%
pest or weed control at 160 µg/disc, 500 g/ha [2]: 100%

CSc1cc2oc(N[C@@H](C)c3ncnn3-c3ncccn3)nc2cc1Cl [Example I-076, 5-Chlor-6-(methylsulfanyl)-N-{(1S)-1-[1-(pyrimidin-2-yl)-1H-1,2,4-triazol-5-yl]ethyl}-1,3-benzoxazol-2-amin]
pest or weed control at 0.004 mg [3]: 100%
pest or weed control at 0.02 mg [3]: 100%
mortality at 100 ppm [1]: 100%
pest or weed control at 5 µg/cm2 [5]: 90%

C[C@H](Nc1nc2cc(C(F)(F)F)c(Cl)cc2o1)c1ncnn1-c1ccc(Cl)cn1 [Example I-033]
mortality at 100 ppm [1]: 90%
mortality at 500 g/ha [4]: 100%
pest or weed control at 5 µg/cm2 [5]: 100%

CCSc1cc2oc(N[C@@H](C)c3ncnn3-c3ncccn3)nc2cc1Cl [Example I-073, 5-Chor-6-(ethylsulfanoyl)-N-{(1S)-1-[1-(pyrimidin-2-yl)-1H-1,2,4-triazol-5-yl]ethyl}-1,3-benzoxazol-2-amin]
pest or weed control at 0.02 mg [3]: 100%
mortality at 100 ppm [1]: 90%
pest or weed control at 5 µg/cm2 [5]: 100%

C[C@H](Nc1nc2cc(Cl)c(SC3CC3)cc2o1)c1ncnn1-c1ncccn1 [Example I-072, 5-Chlor-6-(cyclopropylsulfanyl)-N-{(1S)-1-[1-(pyrimidin-2-yl)-1H-1,2,4-triazol-5-yl]ethyl}-1,3-benzoxazol-2-amin]
mortality at 100 ppm [1]: 100%
pest or weed control at 5 µg/cm2 [5]: 90%

C[C@H](Nc1nc2cc(C(C)(C)C)cc(Cl)c2o1)c1ncnn1-c1ncccn1 [Example I-075, 5-tert-Butyl-7-chlor-N-{(1S)-1-[1-(pyrimidin-2-yl)-1H-1,2,4-triazol-5-yl]ethyl}-1,3-benzoxazol-2-amin]
pest or weed control at 0.004 mg [3]: 100%
pest or weed control at 0.02 mg [3]: 100%
mortality at 100 ppm [1]: 80%

C[C@H](Nc1nc2cc(C(F)(F)F)cc(Cl)c2o1)c1ncnn1-c1cnc(C#N)cn1 [Example I-041, 5-{5-[(1S)-1-{[7-Chlor-5-(trifluormethyl)-1,3-benzoxazol-2-yl]amino}ethyl]-1H-1,2,4-triazol-1-yl}pyrazin-2-carbonitril]
mortality at 100 ppm [1]: 90%
pest or weed control at 100 g/ha [2]: 100%
pest or weed control at 5 µg/cm2 [5]: 80%

C[C@H](Nc1nc2cc(C(F)(F)F)cc(C(F)(F)F)c2o1)c1ncnn1-c1ccc(C#N)cn1 [Example I-026]
pest or weed control at 0.004 mg [3]: 100%
pest or weed control at 0.02 mg [3]: 100%
mortality at 100 ppm [1]: 100%
pest or weed control at 160 µg/disc, 500 g/ha [2]: 100%
mortality at 100 g/ha [4]: 100%
mortality at 500 g/ha [4]: 100%
pest or weed control at 5 µg/cm2 [5]: 100%

C[C@H](Nc1nc2c(C(F)(F)F)cc(Br)cn2n1)c1ncnn1-c1ncccn1 [Example I-095, 6-bromo-N-{(1S)-1-[1-(pyrimidin-2-yl)-1H-1,2,4-triazol-5-yl]ethyl}-8-(trifluoromethyl)[1,2,4]triazolo[1,5-a]pyridin-2-amine]
mortality at 100 ppm [1]: 100%
pest or weed control at 5 µg/cm2 [5]: 80%

C[C@H](Nc1nc2cc(C(F)(F)F)cc(Cl)c2o1)c1ncnn1-c1ncc(Br)s1 [Example I-035, N-{(1S)-1-[1-(5-bromo-1,3-thiazol-2-yl)-1H-1,2,4-triazol-5-yl]ethyl}-7-chloro-5-(trifluoromethyl)-1,3-benzoxazol-2-amine]
pest or weed control at 0.004 mg [3]: 80%
mortality at 100 ppm [1]: 100%
pest or weed control at 100 g/ha [2]: 100%
